Data reported in US4912036A, “Rapid differentiation of bacteria using cyclic polypeptide antibiotics” (Eastman Kodak Company, priority 1986, dated 1990).

Legend:
S. aureus = test: Inhibition of RIND IX reduction by various cyclic polypeptide antibiotics; type: cell-based, Staphylococcus aureus; conditions: Test Method 1 (antibiotic in the test solution), S. aureus about 4.3×10^8 cells/ml, 100 μl of 1 mg/ml antibiotic solution, 30 minutes at 37° C., 635 nm
Procedure: The following materials were used in this example: stock solutions of RIND IX compound dispersion prepared as described above, glucose (10% in water), trimethyl-1,4-benzoquinone ETA (1.5 mg/ml methanol), and the antibiotics (1 mg/ml in dimethylsulfoxide). S. aureus cells were grown as described above. The final cell concentration in the assay mixture was about 4.3×10^8 cells/ml.
Test solutions were prepared by adding in the order: 1.2 ml of HEPES buffer, 50 μl glucose solution, 1.5 ml of RIND IX dispersion, 100 μl of antibiotic solution, 100 μl of cell suspension and 25 μl of ETA solution. Control solutions were prepared as described in Examples 2 and 3. Optical density readings (OD) were measured at 635 nm at 0 minutes and after incubation at 37° C. for 30 minutes for test and control solutions, and the change in density (ΔOD) was determined. Table VI below lists the results, expressed as corrected percent inhibition of the reduction of the RIND compound. The corrected percent inhibition is calculated by dividing the difference between the ΔOD obtained from the Cell Control without antibiotic and the ΔOD of the test solution, by ΔOD of the Cell Control without antibiotic. All readings were corrected by subtracting readings of the appropriate background Controls.
Solutions containing 2.9 ml HEPES, 50 μl of the antibiotic solution and 100 μl cell solution were incubated at 37° C. for 30 minutes, centrifuged for 10 minutes and decanted. The resulting pellet was then treated with 1.4 ml HEPES, 50 μl glucose solution, 1.5 ml RIND IX dispersion and 25 μl ETA solution, mixed well and the densities recorded as described above in Method 1. The corrected percent inhibition data was calculated as described in Method 1 above.

E. cloacae = test: RIND XXIX reduction solution assay, Δ fluorescence; type: cell-based, Enterobacter cloacae; conditions: E. cloacae (gram -) about 5×10^7 cells/ml, polymixin B at 0.01 mg/ml of methanol
Procedure: (§1) Bacterial suspensions were prepared by growing the cells in BHT broth to stationary phase overnight at 37° C. P. auruginosa was grown with agitation. About 40 ml of each overnight culture was centrifuged, decanted and washed once with 0.05 molar potassium phosphate buffer or 0.05 molar N-2-hydroxy-ethylpiperazine-N'-2-ethanesulfonic acid (HEPES) buffer, pH 7.8, and resuspended in buffer.
(§2) Dispersions containing RIND compounds were prepared by dissolving the RIND compound in N,N-dimethylformamide (DMF) at 16 mg compound per ml of solvent. An aliquot (250 μl) of the resulting solution was added to 500 μl of TRITON X-100 surfactant. This mixture was then added dropwise with stirring to 25 ml of 0.05 molar HEPES buffer. A dispersion of RIND XXIX was prepared similarly except that DMF was acidified with 0.1% sulfuric acid. Compositions containing water-compatible RIND compounds were prepared as described above except the surfactant was omitted.
(§3) Each test solution contained the following: dispersion of RIND XXIX (25 μl) prepared as described above, glucose (400 μl of 10% aqueous solution), tryptose (400 μl of 10% aqueous solution), trimethyl-1,4-benzoquinone ETA (500 μl of 1.5 mg/ml methanol). Aliquots (200 μl) of the mixture were mixed with solutions of the antibiotics (50 μl). The cell suspensions (50 μl) were then added. The final concentration of gramcidin S and tyrocidin were 0.1 mg/ml and 3.3 mg/ml, respectively. The final cell concentration was about 5×10^7 cells/ml. Cell control solutions contained all reagents except antibiotics. Background controls consisted of both buffer and solution controls. […]
(§4) The solutions were incubated at 37° C. for 30 minutes, and the change in fluorescence emission (Δ fluorescence) was determined as the difference between the readings taken when the solutions were first mixed and then after 30 minutes incubation. Measurements were made in a commercially available MICROFLUOR Reader (available from Dynatech Laboratories, Alexandria, Virginia, U.S.A.), modified with an excitation filter at 540 nm, an emission filter at 620 nm and a Xenon lamp. […]

P. aeruginosa = test: RIND XXIX reduction solution assay, Δ fluorescence; type: cell-based, Pseudomonas aeruginosa; conditions: P. aeruginosa (gram -) about 5×10^7 cells/ml, polymixin B at 0.01 mg/ml of methanol
Procedure: as §1, §2, §3, §4

P. vulgaris = test: RIND XXIX reduction solution assay, Δ fluorescence; type: cell-based, Proteus vulgaris; conditions: P. vulgaris (gram -) about 5×10^7 cells/ml, polymixin B at 0.01 mg/ml of methanol
Procedure: as §1, §2, §3, §4

K. pneumoniae = test: RIND XXIX reduction solution assay, Δ fluorescence; type: cell-based, Klebsiella pneumoniae; conditions: K. pneumoniae (gram -) about 5×10^7 cells/ml, polymixin B at 0.01 mg/ml of methanol
Procedure: as §1, §2, §3, §4

E. coli = test: RIND XXIX reduction solution assay, Δ fluorescence; type: cell-based, Escherichia coli; conditions: E. coli (gram -) about 5×10^7 cells/ml, polymixin B at 0.01 mg/ml of methanol
Procedure: as §1, §2, §3, §4

[1] = tested on: viable gram-positive and gram-negative bacteria; test: Differentiation in RIND XXIX solution assays, overall result; type: cell-based; conditions: polymixin B at 0.01 mg/ml of methanol
Procedure: Each test solution contained the following: dispersion of RIND XXIX (25 μl) prepared as described above, glucose (400 μl of 10% aqueous solution), tryptose (400 μl of 10% aqueous solution), trimethyl-1,4-benzoquinone ETA (500 μl of 1.5 mg/ml methanol). Aliquots (200 μl) of the mixture were mixed with solutions of the antibiotics (50 μl). The cell suspensions (50 μl) were then added. The final concentration of gramcidin S and tyrocidin were 0.1 mg/ml and 3.3 mg/ml, respectively. The final cell concentration was about 5×10^7 cells/ml. Cell control solutions contained all reagents except antibiotics. Background controls consisted of both buffer and solution controls. The buffer control contained all reagents except antibiotics and cells. The solution control contained all reagents except cells.
The solutions were incubated at 37° C. for 30 minutes, and the change in fluorescence emission (Δ fluorescence) was determined as the difference between the readings taken when the solutions were first mixed and then after 30 minutes incubation. Measurements were made in a commercially available MICROFLUOR Reader (available from Dynatech Laboratories, Alexandria, Virginia, U.S.A.), modified with an excitation filter at 540 nm, an emission filter at 620 nm and a Xenon lamp.
This example illustrates the practice of this invention to identify a Proteus species in solution. Test solutions and cell control solutions were prepared and tested as described in Example 2 and 3 except that polymixin B was used at 0.01 mg/ml of methanol. The final cell concentration was about 5×10^7 cells/ml.

Molecule	Corrected % Inhibition (S. aureus)	Δ Relative Fluorescence (30 Minutes) (E. cloacae)	Δ Relative Fluorescence (30 Minutes) (P. aeruginosa)	Δ Relative Fluorescence (30 Minutes) (P. vulgaris)	Δ Relative Fluorescence (30 Minutes) (K. pneumoniae)	Δ Relative Fluorescence (30 Minutes) (E. coli)	inhibition of reduction of RIND XXIX by gram-negative microorganisms, in words [1]
CN[C@H](CC(C)C)C(=O)N[C@H]1C(=O)N[C@@H](CC(N)=O)C(=O)N[C@H]2C(=O)N[C@H]3C(=O)N[C@H](C(=O)N[C@H](C(=O)O)c4cc(O)cc(O)c4-c4cc3ccc4O)[C@H](O)c3ccc(c(Cl)c3)Oc3cc2cc(c3O[C@@H]2O[C@H](CO)[C@@H](O)[C@H](O)[C@H]2O[C@H]2C[C@](C)(N)[C@H](O)[C@H](C)O2)Oc2ccc(cc2Cl)[C@H]1O [Vancomycin, vancomycin]	No Inhibition						
polymixin B		1975	1287	3079	1212	1245	inhibited all of the gram-negative microorganisms except Proteus vulgaris from reducing the RIND XXIX compound
